Assay results: US6784201B2, “Benzothiepines having activity as inhibitors of ileal bile acid transport and taurocholate uptake” (G.D. Searle & Company, priority 1994, dated 2004)
Where two headings read alike, the source gives them in different places.

Legend:
[1] = target: T1, human IBAT (Homo sapiens, UniProt Q12908); experiment: In vitro assay of IBAT-mediated uptake of [14C]-taurocholate (TC) in H14 cells; format: cell-based
T1 construct: expressed in transfected cells; host or cells: Baby hamster kidney (BHK) cells, clone H14
T1 sequence (Q12908 1-348): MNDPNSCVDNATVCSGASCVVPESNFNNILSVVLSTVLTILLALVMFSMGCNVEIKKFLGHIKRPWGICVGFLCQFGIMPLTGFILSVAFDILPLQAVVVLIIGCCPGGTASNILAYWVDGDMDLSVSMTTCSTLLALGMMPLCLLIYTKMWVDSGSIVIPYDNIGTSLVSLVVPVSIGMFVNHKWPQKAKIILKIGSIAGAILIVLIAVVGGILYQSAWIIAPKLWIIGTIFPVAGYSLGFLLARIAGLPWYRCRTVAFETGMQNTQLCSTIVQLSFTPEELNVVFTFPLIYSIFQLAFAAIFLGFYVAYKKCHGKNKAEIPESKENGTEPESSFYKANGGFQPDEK
Outline: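 BHK cells stably expressing human IBAT (H14) were incubated 2 h at 37° C with compound and 3 μM final [14C]-taurocholate in DMEM (4.5 g/L glucose) plus 0.2% fatty acid-free BSA. After cold PBS washes, cell-associated radioactivity was measured by scintillation counting.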

[2] = test system: H14 cells; experiment: In vitro assay of uptake of [14C]-alanine; format: cell-based, hamster; settings: Mesocricetus auratus; 10 μM
Outline: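 H14 cells (BHK expressing human IBAT) incubated 2 h at 37 °C with compound and labelled alanine, in the same format as the 3 μM [14C]-taurocholate uptake assay, in DMEM with 0.2% fatty acid-free BSA. After cold PBS washes, cell-associated radioactivity measured by scintillation counting.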

[3] = target: ACAT; experiment: Acyl-CoA; cholesterol acyl transferase (ACAT), hamster liver microsomes; format: biochemical; settings: read-out: ACAT (liver) IC(50)
Method: (§1) Acyl-CoA; Cholesterol Acyl Transferase (ACAT)
(§2) Hamster liver and rat intestinal microsomes were prepared from tissue as described previously (Reference: (1980) J. Biol. Chem. 255, 9098) and used as a source of ACAT enzyme. The assay consisted of a 2.0 ml incubation containing 24 μM Oleoyl-CoA (0.05 μCi) in a 50 mM sodium phosphate, 2 mM DTT ph 7.4 buffer containing 0.25% BSA and 200 μg of microsomal protein. The assay was initiated by the addition of oleoyl-CoA. The reaction went for 5 min at 37° C. and was terminated by the addition of 8.0 ml of chloroform/methanol (2:1). […] The chloroform phase was taken to dryness and then spotted on a silica gel 60 TLC plate and developed in hexane/ethyl ether (9:1). The amount of cholesterol ester formed was determined by measuring the amount of radioactivity incorporated into the cholesterol oleate spot on the TLC plate with a Packard instaimager.

[4] = target: ACAT; experiment: Acyl-CoA; cholesterol acyl transferase (ACAT), rat intestinal microsomes; format: biochemical; settings: read-out: ACAT intestine IC(50)
Method: as §1, §2

[5] = test system: Serum Cholesterol; experiment: Determination of serum cholesterol (SER.CHOL, HDL-CHOL, TGI, VLDL+LDL), cholesterol-fed hamsters; format: in vivo, hamster; settings: 0.2% Cpd. No. 25, mean (SEM)
Method: Determination of Serum Cholesterol (SER.CHOL, HDL-CHOL, TGI and VLDL+LDL)
Total serum cholesterol (SER.CHOL) was measured enzymatically using a commercial kit from Wako Fine Chemicals (Richmond, Va.); Cholesterol C11, Catalog No. 276-64909. HDL cholesterol (HDL-CHOL) was assayed using this same kit after precipitation of VLDL and LDL with Sigma Chemical Co. HDL Cholesterol reagent, Catalog No. 352-3 (dextran sulfate method). Total serum triglycerides (blanked) (TGI) were assayed enzymatically with Sigma Chemical Co. GPO-Trinder, Catalog No. 337-B. VLDL and LDL (VLDL+LDL) cholesterol concentrations were calculated as the difference between total and HDL cholesterol.

[6] = test system: Hepatic HMG CoA-Reductase; experiment: Hepatic HMG CoA-reductase activity, cholesterol-fed hamsters; format: in vivo, hamster; settings: 0.2% Cpd. No. 25, mean (SEM)
Method: Measurement of Hepatic HMG CoA-Reductase Activity (HMG COA)
Hepatic microsomes were prepared by homogenizing liver samples in a phosphate/sucrose buffer, followed by centrifugal separation. The final pelleted material was resuspended in buffer and an aliquot was assayed for HMG CoA reductase activity by incubating for 60 minutes at 37° C. in the presence of ^14C-HMG-CoA (Dupont-NEN). The reaction was stopped by adding 6N HCl followed by centrifugation. An aliquot of the supernatant was separated, by thin-layer chromatography, and the spot corresponding to the enzyme product was scraped off the plate, extracted and radioactivity was determined by scintillation counting. (Reference: Akerlund, J. and Bjorkhem, I. (1990) J. Lipid Res. 31, 2159).

[7] = test system: Hepatic Cholesterol 7-α-Hydroxylase; experiment: Hepatic cholesterol 7-α-hydroxylase activity, cholesterol-fed hamsters; format: in vivo, hamster; settings: 0.2% Cpd. No. 25, mean (SEM)
Method: (§3) Measurement of Hepatic Cholesterol 7-α-Hydroxylase Activity (7a-OHase)
(§4) Hepatic microsomes were prepared by homogenizing liver samples in a phosphate/sucrose buffer, followed by centrifugal separation. The final pelleted material was resuspended in buffer and an aliquot was assayed for cholesterol 7-α-hydroxylase activity by incubating for 5 minutes at 37° C. in the presence of NADPH. Following extraction into petroleum ether, the organic solvent was evaporated and the residue was dissolved in acetonitrile/methanol. The enzymatic product was separated by injecting an aliquot of the extract onto a C18 reversed phase HPLC column and quantitating the eluted material using UV detection at 240 nm. (Reference: Horton, J. D., et al. (1994) J. Clin. Invest. 93, 2084).

[8] = test system: Hepatic Cholesterol 7-α-Hydroxylase; experiment: Hepatic cholesterol 7-α-hydroxylase activity, rat Alzet minipump model; format: in vivo; settings: 20 MPL/DAY, mean (SEM)
Method: as §3, §4

IC50 ([1]; H14 cells, Table 5, read-out: IC50 uM (In vitro Taurocholate Cell Uptake)): 0.1 µM
IC50 ([1]; Table 6, read-out: TC-uptake (H14 cells) IC(50)): 0.1 µM
IC50 [3]: 8 µM
IC50 [4]: 8 µM
Compound: CCCC[C@]1(CC)CS(=O)(=O)c2cc(OC)ccc2[C@@H](c2ccccc2)[C@H]1O [Example 25, (3α,4β,5β) 3-Butyl-3-ethyl-4-hydroxy-8-methoxy-5-phenyl-2,3,4,5-tetrahydrobenzothiepine-1,1-dioxide]
inhibition at 10 µM [2]: 4%
HDL-CHOL (mg %) [5]: 76 (1) *A, B mg %
SER.CHOL (mg %) [5]: 126 (2) mg %
TGI (mg %) [5]: 175 (11) mg %
VLDL + LDL ([5]; difference total minus HDL cholesterol): 50 (3)
HMG COA (pm/mg/min.) [6]: 312.9 (37.5) pm/mg/min.
7a-OHase (pm/mg/min.) [7]: 291.0 (6.0) *A pm/mg/min.
7a-OHase (pm/mg/min) [8]: 535.2 (35.7) *A, B pm/mg/min
